According to the NIST ThermoML archive (doi:10.1021/je025657+):
Several values for one entry are separate records, joined by “and”; a condition that tells them apart may be missing. Equal entries are not always repeated.

COC(F)(F)C(F)(F)F [methyl pentafluoroethyl ether]
Details | mass density [kg/m3]
240 K, 142.7 kPa, Liquid | 1425.44
240 K, 525.8 kPa, Liquid | 1426.3
240 K, 1016.6 kPa, Liquid | 1427.42
240 K, 1498.9 kPa, Liquid | 1428.49
240 K, 2020 kPa, Liquid | 1429.64
240 K, 2495.8 kPa, Liquid | 1430.67
240 K, 3020.1 kPa, Liquid | 1431.83
240 K, 3526.2 kPa, Liquid | 1432.91
240 K, 4022.9 kPa, Liquid | 1433.98
240 K, 4516.7 kPa, Liquid | 1435.03
240 K, 5006.8 kPa, Liquid | 1436.06
240 K, 5507.4 kPa, Liquid | 1437.1
240 K, 6031.3 kPa, Liquid | 1438.18
240 K, 6522.4 kPa, Liquid | 1439.2
240 K, 6991.3 kPa, Liquid | 1440.14
250 K, 508.4 kPa, Liquid | 1401.06
250 K, 999.4 kPa, Liquid | 1402.28
250 K, 1512.6 kPa, Liquid | 1403.57
250 K, 1981.4 kPa, Liquid | 1404.73
250 K, 2484.2 kPa, Liquid | 1405.96
250 K, 3006.1 kPa, Liquid | 1407.22
250 K, 3493.4 kPa, Liquid | 1408.39
250 K, 4031.6 kPa, Liquid | 1409.66
250 K, 4527.8 kPa, Liquid | 1410.82
250 K, 5017.1 kPa, Liquid | 1411.96
250 K, 5520.4 kPa, Liquid | 1413.12
250 K, 5982.1 kPa, Liquid | 1414.17
250 K, 6505.2 kPa, Liquid | 1415.37
250 K, 6941.8 kPa, Liquid | 1416.34
260 K, 86.5 kPa, Liquid | 1374.31
260 K, 500.8 kPa, Liquid | 1375.48
260 K, 1002.7 kPa, Liquid | 1376.9
260 K, 1516.5 kPa, Liquid | 1378.35
260 K, 2001 kPa, Liquid | 1379.71
260 K, 2509.7 kPa, Liquid | 1381.11
260 K, 3006.5 kPa, Liquid | 1382.45
260 K, 3509.7 kPa, Liquid | 1383.8
260 K, 4009.1 kPa, Liquid | 1385.14
260 K, 4516.6 kPa, Liquid | 1386.48
260 K, 5008.9 kPa, Liquid | 1387.75
260 K, 5494.8 kPa, Liquid | 1389
260 K, 6029.6 kPa, Liquid | 1390.36
260 K, 6497.8 kPa, Liquid | 1391.53
260 K, 6976.1 kPa, Liquid | 1392.71
270 K, 526.2 kPa, Liquid | 1348.82
270 K, 1033.1 kPa, Liquid | 1350.45
270 K, 1545.3 kPa, Liquid | 1352.07
270 K, 2026.1 kPa, Liquid | 1353.57
270 K, 2522.2 kPa, Liquid | 1355.11
270 K, 3044.2 kPa, Liquid | 1356.7
270 K, 3549.7 kPa, Liquid | 1358.22
270 K, 3956.7 kPa, Liquid | 1359.43
270 K, 4491.8 kPa, Liquid | 1360.99
270 K, 5023.1 kPa, Liquid | 1362.54
270 K, 5514.7 kPa, Liquid | 1363.95
270 K, 6030.4 kPa, Liquid | 1365.42
270 K, 6512.4 kPa, Liquid | 1366.76
270 K, 6977.7 kPa, Liquid | 1367.99
280 K, 445.3 kPa, Liquid | 1320.87
280 K, 957.2 kPa, Liquid | 1322.76
280 K, 1474.3 kPa, Liquid | 1324.63
280 K, 1861.1 kPa, Liquid | 1326.03
280 K, 2459.7 kPa, Liquid | 1328.12
280 K, 2951.9 kPa, Liquid | 1329.83
280 K, 3497.7 kPa, Liquid | 1331.69
280 K, 3963.9 kPa, Liquid | 1333.26
280 K, 4513.2 kPa, Liquid | 1335.09
280 K, 4981.9 kPa, Liquid | 1336.62
280 K, 5492.2 kPa, Liquid | 1338.26
280 K, 5847.1 kPa, Liquid | 1339.41
280 K, 6466.8 kPa, Liquid | 1341.37
280 K, 7194.3 kPa, Liquid | 1343.64
290 K, 83.3 kPa, Liquid | 1290.78
290 K, 504.8 kPa, Liquid | 1292.57
290 K, 981.6 kPa, Liquid | 1294.58
290 K, 1520.9 kPa, Liquid | 1296.8
290 K, 2011.5 kPa, Liquid | 1298.79
290 K, 2520.4 kPa, Liquid | 1300.82
290 K, 2991.9 kPa, Liquid | 1302.67
290 K, 3491.2 kPa, Liquid | 1304.61
290 K, 4006.3 kPa, Liquid | 1306.56
290 K, 4525.3 kPa, Liquid | 1308.51
290 K, 4985.1 kPa, Liquid | 1310.22
290 K, 5527.4 kPa, Liquid | 1312.2
290 K, 6024.9 kPa, Liquid | 1313.97
290 K, 6484.8 kPa, Liquid | 1315.61
290 K, 6967.8 kPa, Liquid | 1317.32
300 K, 45.7 kPa, Gas | 2.84
300 K, 56.7 kPa, Gas | 3.73
300 K, 82 kPa, Gas | 5.31
300 K, 93.3 kPa, Gas | 6.05
300 K, 98.2 kPa, Gas | 6.15
300 K, 116.1 kPa, Gas | 7.55
300 K, 131.7 kPa, Gas | 8.6
300 K, 165.9 kPa, Gas | 10.97
300 K, 188.8 kPa, Gas | 12.58
300 K, 218.2 kPa, Gas | 15.51
300 K, 225.7 kPa, Liquid | 1260.66
300 K, 238.5 kPa, Liquid | 1260.72
300 K, 491.2 kPa, Liquid | 1262.72
300 K, 953.1 kPa, Liquid | 1264.98
300 K, 1060.7 kPa, Liquid | 1264.75
300 K, 1531 kPa, Liquid | 1267.74
300 K, 2019 kPa, Liquid | 1270.02
300 K, 2031.9 kPa, Liquid | 1269.32
300 K, 2496.4 kPa, Liquid | 1272.22
300 K, 2993.2 kPa, Liquid | 1274.45
300 K, 3055.9 kPa, Liquid | 1273.93
300 K, 3514 kPa, Liquid | 1276.75
300 K, 4031 kPa, Liquid | 1279
300 K, 4031.8 kPa, Liquid | 1278.16
300 K, 4522.9 kPa, Liquid | 1281.1
300 K, 4978 kPa, Liquid | 1283
300 K, 5197 kPa, Liquid | 1282.99
300 K, 5491.3 kPa, Liquid | 1285.12
300 K, 5997.8 kPa, Liquid | 1287.18
300 K, 6173.2 kPa, Liquid | 1286.91
300 K, 6524.7 kPa, Liquid | 1289.29
300 K, 7023.9 kPa, Liquid | 1291.24
300 K, 7126.4 kPa, Liquid | 1290.5
310 K, 21.5 kPa, Gas | 1.25
310 K, 31.7 kPa, Gas | 1.86
310 K, 97.3 kPa, Gas | 5.82
310 K, 144.4 kPa, Gas | 8.89
310 K, 195.7 kPa, Gas | 12.34
310 K, 245.2 kPa, Gas | 15.73
310 K, 276.7 kPa, Gas | 17.86
310 K, 300.3 kPa, Liquid | 1229.27
310 K, 312.6 kPa, Liquid | 1229.37
310 K, 517 kPa, Liquid | 1231.54
310 K, 1007.8 kPa, Liquid | 1234.36
310 K, 1029.3 kPa, Liquid | 1233.39
310 K, 1513.8 kPa, Liquid | 1237.16
310 K, 2033.1 kPa, Liquid | 1239.99
310 K, 2065.7 kPa, Liquid | 1238.99
310 K, 2524.9 kPa, Liquid | 1242.6
310 K, 3064.4 kPa, Liquid | 1245.4
310 K, 3131.6 kPa, Liquid | 1244.48
310 K, 3532.8 kPa, Liquid | 1247.78
310 K, 3972.8 kPa, Liquid | 1249.95
310 K, 4126.7 kPa, Liquid | 1249.38
310 K, 4507.3 kPa, Liquid | 1252.57
310 K, 5034.7 kPa, Liquid | 1255.08
310 K, 5145.5 kPa, Liquid | 1254.18
310 K, 5514.9 kPa, Liquid | 1257.34
310 K, 6031.8 kPa, Liquid | 1259.71
310 K, 6158.3 kPa, Liquid | 1258.81
310 K, 6533.8 kPa, Liquid | 1261.96
310 K, 7010.8 kPa, Liquid | 1264.09
310 K, 7224 kPa, Liquid | 1263.45
320 K, 61.7 kPa, Gas | 3.58
320 K, 90.4 kPa, Gas | 5.23
320 K, 101.6 kPa, Gas | 5.98
320 K, 132 kPa, Gas | 7.77
320 K, 155.5 kPa, Gas | 9.32
320 K, 191.5 kPa, Gas | 11.5
320 K, 213.2 kPa, Gas | 12.95
320 K, 276.1 kPa, Gas | 17.25
320 K, 336.5 kPa, Gas | 21.52
320 K, 383 kPa, Gas | 24.92
320 K, 384.9 kPa, Gas | 25.11
320 K, 389.1 kPa, Gas | 25.46
320 K, 413.8 kPa, Liquid | 1196.33
320 K, 506.3 kPa, Liquid | 1198.36
320 K, 1023.1 kPa, Liquid | 1201.87
320 K, 1053 kPa, Liquid | 1200.63
320 K, 1521.8 kPa, Liquid | 1205.15
320 K, 2002.9 kPa, Liquid | 1208.23
320 K, 2051.9 kPa, Liquid | 1207.02
320 K, 2517.3 kPa, Liquid | 1211.43
320 K, 3022.6 kPa, Liquid | 1214.49
320 K, 3053.1 kPa, Liquid | 1213.09
320 K, 3517.5 kPa, Liquid | 1217.45
320 K, 4012.9 kPa, Liquid | 1220.32
320 K, 4120.2 kPa, Liquid | 1219.2
320 K, 4543.1 kPa, Liquid | 1223.3
320 K, 5018.6 kPa, Liquid | 1225.9
320 K, 5085.4 kPa, Liquid | 1224.49
320 K, 5551.9 kPa, Liquid | 1228.77
320 K, 5992.8 kPa, Liquid | 1231.09
320 K, 6206.6 kPa, Liquid | 1230.35
320 K, 6495.8 kPa, Liquid | 1233.69
320 K, 6965.6 kPa, Liquid | 1236.06
320 K, 7182.7 kPa, Liquid | 1235.21
330 K, 70.8 kPa, Gas | 3.97
330 K, 98.4 kPa, Gas | 5.48
330 K, 103.9 kPa, Gas | 5.88
330 K, 151.6 kPa, Gas | 8.67
330 K, 169.4 kPa, Gas | 9.72
330 K, 219.7 kPa, Gas | 12.83
330 K, 235.2 kPa, Gas | 13.71
330 K, 295.3 kPa, Gas | 17.66
330 K, 307.4 kPa, Gas | 18.42
330 K, 315.2 kPa, Gas | 18.98
330 K, 375.8 kPa, Gas | 23.12
330 K, 444.8 kPa, Gas | 28.23
330 K, 472.9 kPa, Gas | 30.25
330 K, 547.4 kPa, Liquid | 1161.55
330 K, 1004 kPa, Liquid | 1165.27
330 K, 1009.1 kPa, Liquid | 1167.02
330 K, 1493.2 kPa, Liquid | 1170.86
330 K, 1999 kPa, Liquid | 1172.99

mass density
Details | 240 K | 250 K | 260 K | 270 K | 280 K | 290 K | 300 K | 310 K | 320 K
Gas | – | – | – | – | – | – | – | 23.61 kg/m3 | 29.81 kg/m3
Liquid | 1425.22 kg/m3 | 1399.85 kg/m3 | 1374.2 kg/m3 | 1347.19 kg/m3 | 1319.62 kg/m3 | 1291.09 kg/m3 | 1260.39 kg/m3 and 1261.37 kg/m3 and 1261.41 kg/m3 | 1230.28 kg/m3 | 1196.29 kg/m3 and 1197.68 kg/m3
